These results are taken from the supplement of paper PMC12076712.

Assay in all cases: pIC50, kinobeads binding competition
One assay concerns the target UniProt Q16513. The method, boiled down: (§1)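 Either living Jurkat cells (60 min at 37 °C, then lysis) or lysates (60 min at 4 °C) were treated with nine compound concentrations from a top of 30 μM, in 1:4 steps for cells and 1:5 steps for lysates. The lysates were from Jurkat cells or a 1:1:1:1 mix of HEK293, K-562, HepG2 and placenta. Kinobeads-bound proteins were digested and quantified by TMT10 LC-MS/MS. pIC50 was calculated by logistic dose-response fitting (R drc package) of fold changes relative to vehicle, in biological duplicates.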

The next assay addresses T1, UniProt O60285.
T1 sequence (whole entry): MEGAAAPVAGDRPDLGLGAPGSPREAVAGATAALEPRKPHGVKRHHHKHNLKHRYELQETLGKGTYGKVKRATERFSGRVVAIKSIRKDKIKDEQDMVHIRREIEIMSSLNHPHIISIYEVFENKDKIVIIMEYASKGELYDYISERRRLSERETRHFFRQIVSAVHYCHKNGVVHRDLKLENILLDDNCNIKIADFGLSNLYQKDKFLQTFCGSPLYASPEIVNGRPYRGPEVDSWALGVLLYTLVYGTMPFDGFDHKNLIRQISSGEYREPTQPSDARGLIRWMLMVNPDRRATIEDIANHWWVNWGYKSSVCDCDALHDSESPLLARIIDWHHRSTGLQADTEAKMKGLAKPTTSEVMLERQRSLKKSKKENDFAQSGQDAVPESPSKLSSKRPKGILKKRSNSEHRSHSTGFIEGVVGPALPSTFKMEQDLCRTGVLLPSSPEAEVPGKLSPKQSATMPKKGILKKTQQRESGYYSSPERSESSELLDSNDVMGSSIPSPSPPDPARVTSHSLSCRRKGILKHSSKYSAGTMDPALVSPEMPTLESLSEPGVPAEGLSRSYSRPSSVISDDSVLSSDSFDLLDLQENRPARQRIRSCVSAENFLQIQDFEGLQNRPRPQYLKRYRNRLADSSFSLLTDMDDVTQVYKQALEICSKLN
Conditions: cell material: Lysate mix. The method, boiled down:
as §1

For a further assay, the target named is T2, UniProt Q8IW41.
T2 sequence (whole entry): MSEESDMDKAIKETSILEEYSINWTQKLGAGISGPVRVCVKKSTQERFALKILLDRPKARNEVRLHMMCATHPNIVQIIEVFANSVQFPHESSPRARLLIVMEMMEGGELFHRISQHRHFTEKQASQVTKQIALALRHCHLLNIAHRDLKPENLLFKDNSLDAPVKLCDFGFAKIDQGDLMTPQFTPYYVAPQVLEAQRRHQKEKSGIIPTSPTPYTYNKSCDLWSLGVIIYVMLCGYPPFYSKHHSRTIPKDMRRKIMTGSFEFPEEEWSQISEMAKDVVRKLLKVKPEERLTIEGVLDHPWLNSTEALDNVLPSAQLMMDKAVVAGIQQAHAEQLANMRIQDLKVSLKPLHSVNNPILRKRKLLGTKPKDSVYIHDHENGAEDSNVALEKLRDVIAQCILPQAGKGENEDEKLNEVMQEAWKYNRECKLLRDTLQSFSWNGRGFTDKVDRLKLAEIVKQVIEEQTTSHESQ
In short, it runs like this:
as §1

The target of another assay is T3, TEC (UniProt P42680).
T3 sequence (whole entry): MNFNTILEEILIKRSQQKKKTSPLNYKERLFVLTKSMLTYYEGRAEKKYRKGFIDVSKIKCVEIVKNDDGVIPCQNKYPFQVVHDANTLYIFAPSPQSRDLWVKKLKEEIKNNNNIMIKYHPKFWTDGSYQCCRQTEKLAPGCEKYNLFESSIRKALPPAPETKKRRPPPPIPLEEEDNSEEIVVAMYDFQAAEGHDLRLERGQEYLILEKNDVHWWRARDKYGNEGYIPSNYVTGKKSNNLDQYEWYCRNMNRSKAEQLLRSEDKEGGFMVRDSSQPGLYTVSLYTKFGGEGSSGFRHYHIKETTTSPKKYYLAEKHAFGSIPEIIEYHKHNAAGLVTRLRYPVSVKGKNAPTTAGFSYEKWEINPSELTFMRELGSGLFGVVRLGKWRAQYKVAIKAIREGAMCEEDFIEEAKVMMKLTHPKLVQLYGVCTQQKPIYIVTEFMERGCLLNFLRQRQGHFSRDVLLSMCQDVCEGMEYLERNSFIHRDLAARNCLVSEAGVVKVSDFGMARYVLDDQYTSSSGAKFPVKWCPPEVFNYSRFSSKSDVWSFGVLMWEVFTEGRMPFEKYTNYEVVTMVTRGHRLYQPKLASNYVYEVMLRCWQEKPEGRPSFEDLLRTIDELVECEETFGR
In short, it runs like this:
as §1

In another assay the target is UniProt P49841. In short, it runs like this:
as §1

A further assay concerns the target MAST3 (UniProt O60307). The method, boiled down: as §1
In another assay the target is LRRK2 (UniProt Q5S007). Conditions: cell material: Lysate mix. The method, boiled down: as §1
Another assay has as its target DAPK3 (UniProt O43293). The method, boiled down:
as §1

Another assay concerns the target T4, ICK (UniProt Q9UPZ9).
T4 sequence (whole entry): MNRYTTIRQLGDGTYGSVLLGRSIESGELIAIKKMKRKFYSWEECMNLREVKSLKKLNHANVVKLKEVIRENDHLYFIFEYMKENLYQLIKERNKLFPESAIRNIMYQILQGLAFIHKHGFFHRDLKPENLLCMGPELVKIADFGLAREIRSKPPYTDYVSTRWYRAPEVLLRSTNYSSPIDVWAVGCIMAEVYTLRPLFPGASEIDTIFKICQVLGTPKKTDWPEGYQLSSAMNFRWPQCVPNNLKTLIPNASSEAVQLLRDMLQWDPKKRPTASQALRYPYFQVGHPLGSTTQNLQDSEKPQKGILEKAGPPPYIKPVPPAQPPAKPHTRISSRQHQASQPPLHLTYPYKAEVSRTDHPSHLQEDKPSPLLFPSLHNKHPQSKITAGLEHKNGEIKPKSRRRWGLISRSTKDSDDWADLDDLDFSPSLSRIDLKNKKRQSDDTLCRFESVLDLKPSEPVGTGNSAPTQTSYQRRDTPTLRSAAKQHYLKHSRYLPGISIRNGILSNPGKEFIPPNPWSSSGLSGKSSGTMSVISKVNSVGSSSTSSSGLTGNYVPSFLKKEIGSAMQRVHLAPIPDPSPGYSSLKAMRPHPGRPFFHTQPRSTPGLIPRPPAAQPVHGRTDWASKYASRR
In short, it runs like this: as §1

A further assay deals with UniProt Q9BUB5. In short, it runs like this:
as §1

A further assay has as its target EPHA7 (UniProt Q15375). Conditions: cell material: Lysate mix. In short, it runs like this: as §1

Chain of DAPK3 (O43293 whole entry, looked up): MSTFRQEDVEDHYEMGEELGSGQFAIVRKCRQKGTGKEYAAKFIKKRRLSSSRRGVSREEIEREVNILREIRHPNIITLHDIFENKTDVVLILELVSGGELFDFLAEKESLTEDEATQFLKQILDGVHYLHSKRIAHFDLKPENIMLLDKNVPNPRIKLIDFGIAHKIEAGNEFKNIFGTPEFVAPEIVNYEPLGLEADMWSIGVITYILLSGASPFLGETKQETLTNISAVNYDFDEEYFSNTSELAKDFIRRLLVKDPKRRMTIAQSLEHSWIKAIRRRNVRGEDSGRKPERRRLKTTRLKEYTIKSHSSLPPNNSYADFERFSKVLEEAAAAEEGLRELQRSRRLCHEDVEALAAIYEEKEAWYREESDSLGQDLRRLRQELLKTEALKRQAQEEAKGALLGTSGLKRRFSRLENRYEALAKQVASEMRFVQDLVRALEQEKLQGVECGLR
Chain of UniProt P49841 (P49841 whole entry, looked up): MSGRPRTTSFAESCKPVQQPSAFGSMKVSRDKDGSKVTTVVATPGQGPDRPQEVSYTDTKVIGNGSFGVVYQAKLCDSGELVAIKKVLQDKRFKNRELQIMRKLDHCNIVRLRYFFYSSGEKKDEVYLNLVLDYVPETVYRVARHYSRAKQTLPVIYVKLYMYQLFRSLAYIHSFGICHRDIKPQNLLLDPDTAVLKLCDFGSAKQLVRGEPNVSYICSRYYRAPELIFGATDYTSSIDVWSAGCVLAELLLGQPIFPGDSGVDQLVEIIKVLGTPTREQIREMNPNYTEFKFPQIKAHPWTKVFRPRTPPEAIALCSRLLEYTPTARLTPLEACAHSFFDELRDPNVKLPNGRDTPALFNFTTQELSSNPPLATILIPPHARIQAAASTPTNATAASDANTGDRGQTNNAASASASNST
Chain of EPHA7 (Q15375 whole entry, looked up): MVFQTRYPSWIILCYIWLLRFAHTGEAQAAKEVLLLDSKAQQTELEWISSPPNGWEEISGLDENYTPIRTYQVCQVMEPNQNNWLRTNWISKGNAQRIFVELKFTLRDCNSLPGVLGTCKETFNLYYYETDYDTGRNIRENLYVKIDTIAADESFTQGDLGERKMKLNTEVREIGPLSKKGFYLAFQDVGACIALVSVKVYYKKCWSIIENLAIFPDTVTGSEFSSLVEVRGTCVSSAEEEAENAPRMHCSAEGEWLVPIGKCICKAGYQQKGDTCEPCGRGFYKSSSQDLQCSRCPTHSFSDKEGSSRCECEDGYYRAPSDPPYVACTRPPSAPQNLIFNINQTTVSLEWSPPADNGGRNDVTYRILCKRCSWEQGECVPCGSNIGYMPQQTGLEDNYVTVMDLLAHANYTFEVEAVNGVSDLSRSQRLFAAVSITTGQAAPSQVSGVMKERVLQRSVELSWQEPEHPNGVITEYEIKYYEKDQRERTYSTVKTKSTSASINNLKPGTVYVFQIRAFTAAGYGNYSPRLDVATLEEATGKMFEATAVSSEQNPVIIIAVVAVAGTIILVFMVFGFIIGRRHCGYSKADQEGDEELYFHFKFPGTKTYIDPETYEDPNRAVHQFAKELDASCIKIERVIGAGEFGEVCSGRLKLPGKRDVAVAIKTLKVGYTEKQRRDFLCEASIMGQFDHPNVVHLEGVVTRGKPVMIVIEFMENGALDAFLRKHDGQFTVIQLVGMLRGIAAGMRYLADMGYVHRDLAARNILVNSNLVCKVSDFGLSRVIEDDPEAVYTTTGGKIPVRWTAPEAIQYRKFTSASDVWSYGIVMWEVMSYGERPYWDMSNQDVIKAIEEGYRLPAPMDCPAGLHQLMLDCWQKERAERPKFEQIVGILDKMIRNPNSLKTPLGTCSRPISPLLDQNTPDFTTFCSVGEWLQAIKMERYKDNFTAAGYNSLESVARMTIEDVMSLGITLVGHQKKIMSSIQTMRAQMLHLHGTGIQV
Chain of UniProt Q16513 (Q16513 whole entry, looked up): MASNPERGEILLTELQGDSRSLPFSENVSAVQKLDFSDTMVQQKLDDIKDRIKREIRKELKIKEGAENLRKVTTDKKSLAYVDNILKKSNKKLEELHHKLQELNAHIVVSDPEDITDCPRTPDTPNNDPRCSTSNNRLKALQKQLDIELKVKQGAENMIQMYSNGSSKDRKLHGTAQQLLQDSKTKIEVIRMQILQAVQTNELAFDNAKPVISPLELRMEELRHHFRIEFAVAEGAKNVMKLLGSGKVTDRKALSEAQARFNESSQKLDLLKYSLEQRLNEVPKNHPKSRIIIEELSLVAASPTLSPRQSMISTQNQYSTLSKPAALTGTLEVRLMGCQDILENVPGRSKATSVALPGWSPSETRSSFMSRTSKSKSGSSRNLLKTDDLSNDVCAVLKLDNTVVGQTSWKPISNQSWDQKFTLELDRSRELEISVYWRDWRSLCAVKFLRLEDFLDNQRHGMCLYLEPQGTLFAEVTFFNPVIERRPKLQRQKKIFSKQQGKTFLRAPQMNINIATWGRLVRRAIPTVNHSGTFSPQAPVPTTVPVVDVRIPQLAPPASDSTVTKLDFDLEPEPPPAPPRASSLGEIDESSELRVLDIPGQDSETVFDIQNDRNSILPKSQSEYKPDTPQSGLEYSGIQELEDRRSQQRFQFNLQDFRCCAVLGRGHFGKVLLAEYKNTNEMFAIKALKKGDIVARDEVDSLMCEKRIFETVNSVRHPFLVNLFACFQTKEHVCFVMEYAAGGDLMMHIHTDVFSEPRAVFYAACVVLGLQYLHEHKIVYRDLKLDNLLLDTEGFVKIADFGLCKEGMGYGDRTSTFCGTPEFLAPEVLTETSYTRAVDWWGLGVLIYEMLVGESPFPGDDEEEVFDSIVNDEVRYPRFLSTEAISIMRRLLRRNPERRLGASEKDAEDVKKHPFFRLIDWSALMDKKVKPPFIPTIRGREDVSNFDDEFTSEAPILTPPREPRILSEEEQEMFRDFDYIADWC
Chain of UniProt Q9BUB5 (Q9BUB5 whole entry, looked up): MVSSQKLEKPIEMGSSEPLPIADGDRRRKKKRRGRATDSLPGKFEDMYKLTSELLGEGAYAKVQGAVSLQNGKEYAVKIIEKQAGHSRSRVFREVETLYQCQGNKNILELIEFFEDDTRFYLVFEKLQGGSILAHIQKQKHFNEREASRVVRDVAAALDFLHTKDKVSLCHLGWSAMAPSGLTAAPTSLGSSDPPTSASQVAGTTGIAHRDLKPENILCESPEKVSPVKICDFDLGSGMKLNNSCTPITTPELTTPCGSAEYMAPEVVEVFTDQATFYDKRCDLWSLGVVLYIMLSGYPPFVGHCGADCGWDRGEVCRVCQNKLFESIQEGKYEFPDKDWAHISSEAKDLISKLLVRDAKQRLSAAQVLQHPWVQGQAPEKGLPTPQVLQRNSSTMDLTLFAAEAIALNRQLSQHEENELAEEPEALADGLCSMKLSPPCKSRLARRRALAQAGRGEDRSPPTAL
Chain of MAST3 (O60307 whole entry): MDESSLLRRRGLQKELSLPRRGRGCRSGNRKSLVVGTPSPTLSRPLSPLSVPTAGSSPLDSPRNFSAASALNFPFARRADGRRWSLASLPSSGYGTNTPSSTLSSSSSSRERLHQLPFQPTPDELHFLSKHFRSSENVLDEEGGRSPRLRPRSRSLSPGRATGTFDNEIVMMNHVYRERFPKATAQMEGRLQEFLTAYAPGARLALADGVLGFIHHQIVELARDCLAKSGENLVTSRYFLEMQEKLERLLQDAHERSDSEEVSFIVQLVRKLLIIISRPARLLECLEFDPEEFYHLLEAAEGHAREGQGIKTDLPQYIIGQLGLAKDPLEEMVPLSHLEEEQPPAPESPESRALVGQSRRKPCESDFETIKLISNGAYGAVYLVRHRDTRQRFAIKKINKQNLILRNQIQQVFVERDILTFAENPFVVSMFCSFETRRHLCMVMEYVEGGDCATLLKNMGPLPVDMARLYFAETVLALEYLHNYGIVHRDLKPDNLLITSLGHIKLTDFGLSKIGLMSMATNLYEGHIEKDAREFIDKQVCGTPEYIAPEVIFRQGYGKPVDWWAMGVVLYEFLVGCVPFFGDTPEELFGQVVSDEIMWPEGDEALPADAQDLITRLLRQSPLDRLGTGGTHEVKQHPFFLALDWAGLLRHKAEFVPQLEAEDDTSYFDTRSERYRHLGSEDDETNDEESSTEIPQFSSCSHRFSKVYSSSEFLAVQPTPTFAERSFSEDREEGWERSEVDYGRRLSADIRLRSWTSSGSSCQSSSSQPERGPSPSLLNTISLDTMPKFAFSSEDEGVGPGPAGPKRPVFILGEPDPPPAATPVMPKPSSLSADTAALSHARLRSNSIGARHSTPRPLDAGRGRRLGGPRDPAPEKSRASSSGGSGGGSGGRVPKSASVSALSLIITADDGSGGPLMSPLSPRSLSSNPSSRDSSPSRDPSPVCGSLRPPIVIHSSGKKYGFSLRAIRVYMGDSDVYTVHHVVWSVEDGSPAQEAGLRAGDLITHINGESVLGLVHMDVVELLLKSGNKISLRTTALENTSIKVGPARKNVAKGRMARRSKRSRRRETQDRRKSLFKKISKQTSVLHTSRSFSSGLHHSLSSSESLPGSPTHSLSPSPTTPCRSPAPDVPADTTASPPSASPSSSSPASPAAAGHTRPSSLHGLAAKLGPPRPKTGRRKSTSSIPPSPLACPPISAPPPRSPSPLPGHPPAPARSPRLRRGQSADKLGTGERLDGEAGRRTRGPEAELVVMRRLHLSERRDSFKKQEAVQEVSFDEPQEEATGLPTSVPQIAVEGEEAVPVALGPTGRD

For `Cc1cc(Nc2cc(C(=O)NCCNC(=O)OC3CC/C=C/CCC3)nc(N3CCN(Cc4ccc(S(=O)(=O)F)cc4)CC3)n2)n[nH]1` (stereo unspecified), the pIC50 was below 4.52 on UniProt Q16513 (cell material: Lysate mix); below 4.52 on UniProt O60285; below 4.52 at UniProt Q8IW41 (cell material: Lysate mix); below 4.52 at TEC (cell material: Lysate mix); below 4.52 on UniProt P49841 (cell material: Lysate mix); 4.84 on MAST3 (cell material: Lysate mix). For the same compound, the pIC50 at LRRK2, on DAPK3 (cell material: Lysate mix), on ICK (cell material: Lysate mix), on UniProt Q9BUB5 (cell material: Lysate mix) and on EPHA7 was below 4.52 in each case.

Turning to `C#CCNC(=O)c1cc(Nc2cc(C3CC3)[nH]n2)nc(N2CCN(Cc3ccc(S(=O)(=O)F)cc3)CC2)n1`, the pIC50 is 5.32 on UniProt Q16513 (cell material: Jurkat cells); below 4.52 on UniProt Q16513 (cell material: Jurkat lysate); below 4.52 at UniProt Q16513 (cell material: Lysate mix); 4.83 at UniProt O60285; below 4.52 on UniProt Q8IW41 (cell material: Jurkat lysate); below 4.52 on UniProt Q8IW41 (cell material: Lysate mix). The pIC50 is 5.88 on TEC (cell material: Jurkat cells); below 4.52 on TEC (cell material: Jurkat lysate); below 4.52 at TEC (cell material: Lysate mix); 5.26 on UniProt P49841 (cell material: Jurkat cells); below 4.52 at UniProt P49841 (cell material: Jurkat lysate); below 4.52 on UniProt P49841 (cell material: Lysate mix). Also, the pIC50 is 6.54 at MAST3 (cell material: Jurkat cells); 6.27 at MAST3 (cell material: Jurkat lysate); 6.56 at MAST3 (cell material: Lysate mix); 5.64 on LRRK2; below 4.52 at DAPK3 (cell material: Lysate mix); 6.22 at ICK (cell material: Jurkat lysate). In addition, the pIC50 is 6.53 at ICK (cell material: Lysate mix); 5.31 at UniProt Q9BUB5 (cell material: Jurkat cells); below 4.52 on UniProt Q9BUB5 (cell material: Jurkat lysate); below 4.52 at UniProt Q9BUB5 (cell material: Lysate mix); below 4.52 on EPHA7.

Consider `CCNC(=O)c1cc(Nc2cc(C3CC3)[nH]n2)nc(N2CCN(Cc3ccc(S(=O)(=O)F)cc3)CC2)n1`, for which the pIC50 is below 4.52 on UniProt Q16513 (cell material: Lysate mix); 4.98 on UniProt O60285; below 4.52 on UniProt Q8IW41 (cell material: Lysate mix); below 4.52 at TEC (cell material: Lysate mix); below 4.52 at UniProt P49841 (cell material: Lysate mix); 6.22 on MAST3 (cell material: Lysate mix). Further, the pIC50 at LRRK2 was 5.46; on DAPK3 (cell material: Lysate mix), 4.83; at ICK (cell material: Lysate mix) it was 6.46; at UniProt Q9BUB5 (cell material: Lysate mix), below 4.52; on EPHA7, below 4.52.

`C#CCNC(=O)c1cc(Nc2cc(C)[nH]n2)nc(N2CCN(Cc3ccc(S(=O)(=O)F)cc3)CC2)n1`: the pIC50 is below 4.52 at UniProt Q16513 (cell material: Lysate mix); below 4.52 at UniProt O60285; below 4.52 at UniProt Q8IW41 (cell material: Lysate mix); below 4.52 on TEC (cell material: Lysate mix); below 4.52 on UniProt P49841 (cell material: Lysate mix); 6.16 on MAST3 (cell material: Lysate mix). Further, the pIC50 was 5.27 at LRRK2; 4.77 at DAPK3 (cell material: Lysate mix); 5.43 at ICK (cell material: Lysate mix); below 4.52 at UniProt Q9BUB5 (cell material: Lysate mix); below 4.52 at EPHA7.

On to `O=C(NCCNC(=O)c1cc(Nc2cc(C3CC3)[nH]n2)nc(N2CCN(Cc3ccc(S(=O)(=O)F)cc3)CC2)n1)OC1CC/C=C/CCC1` (stereo unspecified), for which the pIC50 on UniProt Q16513 (cell material: Jurkat lysate), at UniProt Q16513 (cell material: Lysate mix), at UniProt O60285, at UniProt Q8IW41 (cell material: Jurkat cells), on UniProt Q8IW41 (cell material: Jurkat lysate) and on UniProt Q8IW41 (cell material: Lysate mix) was below 4.52 throughout. Further, the pIC50 was 4.8 at TEC (cell material: Jurkat cells); below 4.52 on TEC (cell material: Jurkat lysate); below 4.52 on TEC (cell material: Lysate mix); 4.84 on UniProt P49841 (cell material: Jurkat cells); below 4.52 at UniProt P49841 (cell material: Jurkat lysate); below 4.52 at UniProt P49841 (cell material: Lysate mix). In addition, the pIC50 on MAST3 (cell material: Jurkat cells) was 6.5; on MAST3 (cell material: Jurkat lysate), 5.06; on MAST3 (cell material: Lysate mix), 4.9; at LRRK2, below 4.52; at DAPK3 (cell material: Jurkat cells) it was below 4.52; at DAPK3 (cell material: Lysate mix), below 4.52. For the same compound, the pIC50 on ICK (cell material: Jurkat cells) was 6.56; at ICK (cell material: Jurkat lysate) it was 5.31; on ICK (cell material: Lysate mix), 5.38; at UniProt Q9BUB5 (cell material: Jurkat lysate), below 4.52; at UniProt Q9BUB5 (cell material: Lysate mix), below 4.52; on EPHA7, below 4.52.

Take `CCNC(=O)c1cc(Nc2cc(C)[nH]n2)nc(N2CCN(Cc3ccc(S(=O)(=O)F)cc3)CC2)n1`: the pIC50 at UniProt Q16513 (cell material: Lysate mix) was below 4.52; at UniProt O60285 it was below 4.52; at UniProt Q8IW41 (cell material: Lysate mix), below 4.52; at TEC (cell material: Lysate mix) it was below 4.52; on UniProt P49841 (cell material: Lysate mix), below 4.52; at MAST3 (cell material: Lysate mix) it was 6.39. Further, the pIC50 on LRRK2 is 5.28; on DAPK3 (cell material: Lysate mix), 5.14; on ICK (cell material: Lysate mix), 5.64; at UniProt Q9BUB5 (cell material: Lysate mix) it was below 4.52; at EPHA7, below 4.52.

Broadly, the pIC50 is −log10 of the IC50, conventionally taken in molar units. A higher pIC50 goes with a small IC50.
